Patent publication US20180333382A1, “PHARMACEUTICAL COMPOSITIONS COMPRISING DGLA AND USE OF SAME” (DS Biopharma Limited, priority 2017, published 2018)
Several values for one entry are separate records, joined by “and”; a condition that tells them apart may be missing. Identical values can stand only once. Marks after values point to notes of the source that are not given here. Values belong to the molecule of their own block, whether it stands above or below them.

Legend:
[1] = in vivo
[2] = system: spontaneous hypertensive rats; test: Arterial pressure and phenylephrine-induced hypertensive response after seven days of gavage (DGLA, aspirin, DGLA + aspirin); format: in vivo, rat
Method: An in vivo investigation of anti-hypertension efficacy following co-administration of DGLA and aspirin in spontaneous hypertensive rats was conducted. This experiment investigated the efficacy of DGLA when co-administered chronically with aspirin to reduce the hypertensive response induced acutely by phenylephrine in spontaneous hypertensive rats. Spontaneously hypertensive adult male rats (250-300 g), bred by Charles River Laboratories, were used for this assay. The animals were identified upon arrival as per CCPA guidelines. The animals were pair-housed by group (low dose+aspirin, high dose+aspirin or aspirin alone) for the duration of the oral gavage prior to surgery. All animal care and vivarium maintenance was recorded, with documents kept at the test facility.
The concentrations of DGLA to be tested (50 and 500 mg/kg) as well as the concentration of aspirin (10 mg/kg) were selected by the Sponsor based on information available at the time of design of this study. They were selected to cover a range of concentrations useful for the identification of the mechanism of action of the test article.
All solution preparations were documented on a Solution Contents Form, defining labelling information and all relevant information on reagents: batch number, storage conditions, contents, and preparation/expiry dates.
The test article was formulated using olive oil as the vehicle. This stock solution was then administered by oral gavage once per day for seven consecutive days. A low and a high dose (50 mg/kg and 500 mg/kg) were tested.
A 5 mg/ml stock solution of aspirin was prepared by dissolving the appropriate amount of aspirin in 100% DMSO which was then diluted in water. The concentration of DMSO was less than 1%. The appropriate volume was administered by oral gavage to each animal once per day for seven consecutive days. The stock solution was stored at room temperature and was considered stable for the duration of the gavage.
The appropriate volume was administered to each animal by an intravenous injection at the end of the experiment on the surgery day. The stock solution was stored at 4° C. and was considered stable for the duration of the experiment.
A stock solution of phenylephrine of 1 mg/ml were prepared in PBS (pH=7.4±0.05). The stock solution was stored at 4° C. The expiration date was set at 14 days after preparation.
Male spontaneous hypertensive rats weighing approximately 300 g arrived at the facility at least two days before beginning the oral gavage. Animals were assigned to one of three groups (low dose+aspirin, high dose+aspirin, and aspirin), and were pair-housed during the acclimation period. Each group (n=4) received the appropriate compound by oral gavage using a 16 G feeding needle. The stock solution was administered once per day for seven consecutive days. On the seventh day of administration, the animals underwent surgery and hypertensive monitoring.
Rats were anesthetized with a 2.5-3.0% isoflurane-O2 mixture in an induction box. When the animals were removed from the induction box, they were connected onto a nose cone to maintain anesthesia during the tracheotomy. The animals were tracheotomised with an endotracheal tube (7 cm length from connector to the tip made with a PE205 tube from BD and a 16 G needle) to facilitate spontaneous breathing, stabilize hemodynamics, and to keep the rat under anesthesia with an isoflurane-O2 mixture. Two catheters were inserted: one in the right femoral artery for systemic arterial pressure (SAP) measurement, and one in the right femoral vein for delivery of the hypertensor and positive control. ECG signals were acquired with ECG contacts placed in a Lead-1 configuration on the anaesthetized animal, and a pulse oxymeter was attached to the animal's hind paw to enable continuous monitoring of the general condition of the rat during the surgical procedure.

[3] = Aspirin 10 mg/kg, seven days of gavage, before phenylephrine
[4] = aspirin only (10 mg/kg), seven consecutive days of gavage
[5] = aspirin only (10 mg/kg), seven consecutive days of gavage, Rat #1-#5

plasma free 15-HETrE concentrations after DS107G [1]: < 100 ng/mL
SMILES: CCCCC[C@H](O)/C=C/C=C\C/C=C\CCCCCCC(=O)O [15-HETrE, 15-Hydroxyeicosatrienoic acid]

SMILES: CC(=O)Oc1ccccc1C(=O)O [Aspirin, aspirin]
Arterial pressure, Diastol [2, 3]: 100 mmHg | Arterial pressure, Systol [2, 3]: 190 mmHg | Mean systemic arterial pressure [2, 3]: 130 mmHg | Mean arterial pressure at baseline, Average SAP [2, 4]: 136.8 mm of Hg | Mean arterial pressure with an intravenous dose of Phenylephrine 20 μg/kg, Average SAP [2, 4]: 174.3 mm of Hg | Mean arterial pressure at baseline, individual rats [2, 5]: 86.75 mm of Hg and 107.64 mm of Hg and 160.50 mm of Hg and 141.36 mm of Hg and 187.84 mm of Hg | Mean arterial pressure with an intravenous dose of Phenylephrine 20 μg/kg, individual rats [2, 5]: 149.35 mm of Hg and 120.84 mm of Hg and 202.61 mm of Hg and 194.76 mm of Hg and 203.90 mm of Hg | Mean Arterial Pressure, individual rats ([2]; gavage Aspirin 10 mg/kg 7 days, Baseline): 86.75 mmHg and 107.64 mmHg and 160.50 mmHg and 141.36 mmHg and 187.84 mmHg | Mean Arterial Pressure, Average ([2]; gavage Aspirin 10 mg/kg 7 days, Baseline, n=5): 136.8 mmHg | Mean Arterial Pressure, individual rats ([2]; gavage Aspirin 10 mg/kg 7 days, PHE 3 μg/kg iv): 97.24 mmHg and 122.18 mmHg and 168.06 mmHg and 150.54 mmHg and 192.06 mmHg | Mean Arterial Pressure, Average ([2]; gavage Aspirin 10 mg/kg 7 days, PHE 3 μg/kg iv, n=5): 146.0* mmHg | Mean Arterial Pressure, individual rats ([2]; gavage Aspirin 10 mg/kg 7 days, PHE 10 μg/kg iv): 137.63 mmHg and 122.18 mmHg and 203.75 mmHg and 169.61 mmHg and 201.69 mmHg | Mean Arterial Pressure, individual rats ([2]; gavage Aspirin 10 mg/kg 7 days, PHE 10 μg/kg iv after Carvedilol): 93.22 mmHg and 52.61 mmHg and 185.63 mmHg and 171.45 mmHg and 187.96 mmHg | Mean Arterial Pressure, Average ([2]; gavage Aspirin 10 mg/kg 7 days, PHE 10 μg/kg iv after Carvedilol, n=5): 138.2 § mmHg | Mean Arterial Pressure, Average ([2]; gavage Aspirin 10 mg/kg 7 days, PHE 10 μg/kg iv, n=5): 167.0* mmHg | Mean Arterial Pressure, individual rats ([2]; gavage Aspirin 10 mg/kg 7 days, PHE 20 μg/kg iv): 149.35 mmHg and 120.84 mmHg and 202.61 mmHg and 194.76 mmHg and 203.90 mmHg | Mean Arterial Pressure, Average ([2]; gavage Aspirin 10 mg/kg 7 days, PHE 20 μg/kg iv, n=5): 174.3* mmHg | Mean Arterial Pressure, individual rats ([2]; gavage Aspirin 10 mg/kg 7 days, second Baseline after PHE 20 μg/kg): 98.38 mmHg and 64.32 mmHg and 164.88 mmHg and 159.32 mmHg and 177.61 mmHg | Mean Arterial Pressure, Average ([2]; gavage Aspirin 10 mg/kg 7 days, second Baseline after PHE 20 μg/kg, n=5): 132.9** mmHg

SMILES: CNC[C@H](O)c1cccc(O)c1 [phenylephrine]
hypertensor effect on mean systemic arterial pressure ([2]; 3, 10, 20 μg/kg iv, rats fed with aspirin): increased mean systemic arterial pressure with increasing doses

SMILES: COc1ccccc1OCCNCC(O)COc1cccc2[nH]c3ccccc3c12 (stereo not shown) [Carvedilol, carvedilol]
effect on blood pressure ([2]; 0.1 mg/kg iv, DGLA+aspirin-fed animals): significant decrease in blood pressure | effect on mean systemic arterial pressure when added after phenylephrine ([2]; 0.1 mg/kg iv, aspirin-fed rats): significant decrease | Mean Arterial Pressure, individual rats ([2]; gavage Aspirin 10 mg/kg 7 days, Carvedilol 0.1 mg/kg iv): 57.12 mmHg and 44.38 mmHg and 145.56 mmHg and 134.82 mmHg and 115.06 mmHg | Mean Arterial Pressure, individual rats ([2]; gavage DGLA 50 mg/kg + Aspirin 10 mg/kg 7 days, Carvedilol 0.1 mg/kg iv): 115.29 mmHg and 97.01 mmHg and 126.33 mmHg and 59.10 mmHg and 58.93 mmHg | Mean Arterial Pressure, Average SAP ([2]; gavage DGLA 50 mg/kg + Aspirin 10 mg/kg 7 days, Carvedilol 0.1 mg/kg iv, n=5): 91.3 † mmHg | Mean Arterial Pressure, individual rats ([2]; gavage DGLA 500 mg/kg + Aspirin 10 mg/kg 7 days, Carvedilol 0.1 mg/kg iv): 62.13 mmHg and 57.56 mmHg and 57.32 mmHg and 52.11 mmHg | Mean Arterial Pressure, Average SAP ([2]; gavage DGLA 500 mg/kg + Aspirin 10 mg/kg 7 days, Carvedilol 0.1 mg/kg iv, n=4): 57.3 † mmHg
